Source: ChEMBL document CHEMBL1122681, “(Acylaryloxy)acetic acid diuretics. 5. [(2-Alkyl- and 2,2-disubstituted-1,3-dioxo-5-indanyl)oxy]acetic acids” (J Med Chem, 1984)

Experiments:
Canis familiaris [1] = test: Compound was evaluated for diuretic activity, in female mongrel dogs by measuring volume of urine, after iv administration of 5 mg/kg (control/compound treatment results) Control = 1; assay type: ADME, organism-based, Canis lupus familiaris; parameters: dose 5 mg/kg, route intravenous; conditions: dog, in vivo
Pan troglodytes [2] = test: Compound was evaluated for diuretic activity in chimpanzee measured as increase in volume of urine at 1.25 mg/kg; assay type: functional
Pan troglodytes [3] = test: Compound was evaluated for diuretic activity in chimpanzee measured as increase in volume of urine at 5 mg/kg; assay type: functional
Pan troglodytes [4] = test: Compound was evaluated for diuretic activity in chimpanzee measured as clearance of […] and urate after intravenous administration of 1.25 mg/kg; assay type: functional, Urine
Pan troglodytes [5] = test: Compound was evaluated for diuretic activity in chimpanzee measured as clearance of […] and urate after peroral administration of 5 mg/kg; assay type: functional, Urine; conditions: route oral
Pan troglodytes [6] = test: Compound was evaluated for diuretic activity in chimpanzee measured as increase in the number of microequivalents of Na+ /min at 1.25 mg/kg; assay type: functional, Urine
Pan troglodytes [7] = test: Compound was evaluated for diuretic activity in chimpanzee measured as increase in the number of microequivalents of Na+ /min at 5 mg/kg; assay type: functional, Urine
Pan troglodytes [8] = test: Compound was evaluated for diuretic activity in chimpanzee measured as increase in the number of microequivalents of Cl- electrolyte/min at 1.25 mg/kg; assay type: functional, Urine
Pan troglodytes [9] = test: Compound was evaluated for diuretic activity in chimpanzee measured as increase in the number of microequivalents of Cl- electrolyte/min at 5 mg/kg; assay type: functional, Urine
Pan troglodytes [10] = test: Compound was evaluated for diuretic activity in chimpanzee measured as increase in the number of microequivalents of K+ /min at 1.25 mg/kg; assay type: functional, Urine
Canis familiaris [11] = test: Compound was evaluated for diuretic activity, in female mongrel dogs by measuring amount of K+ in urine after iv administration of 5 mg/kg (control/compound treatment results) Control = 10; assay type: functional, Canis lupus familiaris
Canis familiaris [12] = test: Compound was evaluated for diuretic activity, in female mongrel dogs by measuring amount of Cl- in urine after iv administration of 5 mg/kg (control/compound treatment results) Control = 4; assay type: functional, Canis lupus familiaris
Pan troglodytes [13] = test: Compound was evaluated for diuretic activity in chimpanzee measured as increase in the number of microequivalents of K+ /min at 5 mg/kg; assay type: functional, Urine
Canis familiaris [14] = test: Compound was evaluated for diuretic activity, in female mongrel dogs by measuring amount of Na+ in urine after iv administration of 5 mg/kg (control/compound treatment results) Control = 22; assay type: functional, Canis lupus familiaris
[15] = Volume of urine at 27 mg/kg; assay type: ADME, organism-based; parameters: dose 27 mg/kg; conditions: in vivo
[16] = Volume of urine at 3 mg/kg; assay type: ADME, organism-based; parameters: dose 3 mg/kg; conditions: in vivo
[17] = Volume of urine at 81 mg/kg; assay type: ADME, organism-based; parameters: dose 81 mg/kg; conditions: in vivo
[18] = Volume of urine at 9 mg/kg; assay type: ADME, organism-based; parameters: dose 9 mg/kg; conditions: in vivo
Canis familiaris [19] = organism: Canis familiaris; test: (§1) Volume of urine in dog; assay type: ADME, organism-based, Canis lupus familiaris; conditions: in vivo
Canis familiaris [20] = test: Compound was evaluated for diuretic activity, in female mongrel dogs by measuring volume of urine, after iv administration of 5 mg/kg (control/compound treatment results) Control = 2; assay type: ADME, organism-based, Canis lupus familiaris; parameters: dose 5 mg/kg, route intravenous; conditions: dog, in vivo
Pan troglodytes [21] = test: Compound was evaluated for diuretic activity in chimpanzee measured as increase in volume of urine at 1 mg/kg; assay type: functional
Pan troglodytes [22] = test: Compound was evaluated for diuretic activity in chimpanzee measured as clearance of […] and urate after intra venous administration of 1 mg/kg; assay type: functional, Urine
Pan troglodytes [23] = test: Compound was evaluated for diuretic activity in chimpanzee measured as increase in the number of microequivalents of Na+ /min at 1 mg/kg; assay type: functional, Urine
Pan troglodytes [24] = test: Compound was evaluated for diuretic activity in chimpanzee measured as increase in the number of microequivalents of Cl- electrolyte/min at 1 mg/kg; assay type: functional, Urine
Pan troglodytes [25] = test: Compound was evaluated for diuretic activity in chimpanzee measured as increase in the number of microequivalents of K+ /min at 1 mg/kg; assay type: functional, Urine
Canis familiaris [26] = test: Compound was evaluated for diuretic activity, in female mongrel dogs by measuring amount of Cl- in urine after iv administration of 5 mg/kg (control/compound treatment results) Control = 9; assay type: functional, Canis lupus familiaris
Canis familiaris [27] = test: Compound was evaluated for diuretic activity, in female mongrel dogs by measuring amount of K+ in urine after iv administration of 5 mg/kg (control/compound treatment results) Control = 5; assay type: functional, Canis lupus familiaris
Canis familiaris [28] = test: Compound was evaluated for diuretic activity, in female mongrel dogs by measuring amount of Na+ in urine after iv administration of 5 mg/kg (control/compound treatment results) Control = 24; assay type: functional, Canis lupus familiaris
Canis familiaris [29] = test: Compound was evaluated for diuretic activity, administered orally in female mongrel dogs (5 mg/kg) measured as milliequivalents of Cl-; assay type: functional, Canis lupus familiaris, Urine
Canis familiaris [30] = test: Compound was evaluated for diuretic activity, administered orally in female mongrel dogs (5 mg/kg) measured as milliequivalents of K; assay type: functional, Canis lupus familiaris, Urine
Canis familiaris [31] = test: Compound was evaluated for diuretic activity, administered orally in female mongrel dogs (5 mg/kg) measured as milliequivalents of Na; assay type: functional, Canis lupus familiaris, Urine
Rattus norvegicus [32] = test: Compound was evaluated for diuretic activity administered orally in female rats measured as milliequivalents of Na+x 100 / cage at 81 mg/kg; assay type: functional, Urine; conditions: route oral
Rattus norvegicus [33] = test: Compound was evaluated for diuretic activity administered orally in female rats measured as milliequivalents of Na+x 100 / cage at 9 mg/kg; assay type: functional, Urine; conditions: route oral
Rattus norvegicus [34] = test: Compound was evaluated for diuretic activity administered orally in female rats measured as milliequivalents of Cl-+x 100 / cage at 27 mg/kg; assay type: functional, Urine; conditions: route oral
Rattus norvegicus [35] = test: Compound was evaluated for diuretic activity administered orally in female rats measured as milliequivalents of Cl-x 100 / cage at 3 mg/kg; assay type: functional, Urine; conditions: route oral
Rattus norvegicus [36] = test: Compound was evaluated for diuretic activity administered orally in female rats measured as milliequivalents of Cl-x 100 / cage at 81 mg/kg; assay type: functional, Urine; conditions: route oral
Rattus norvegicus [37] = test: Compound was evaluated for diuretic activity administered orally in female rats measured as milliequivalents of Cl-x 100 / cage at 9 mg/kg; assay type: functional, Urine; conditions: route oral
Rattus norvegicus [38] = test: Compound was evaluated for diuretic activity administered orally in female rats measured as milliequivalents of K+x 100 / cage at 27 mg/kg; assay type: functional, Urine; conditions: route oral
Rattus norvegicus [39] = test: Compound was evaluated for diuretic activity administered orally in female rats measured as milliequivalents of K+x 100 / cage at 3 mg/kg; assay type: functional, Urine; conditions: route oral
Rattus norvegicus [40] = test: Compound was evaluated for diuretic activity administered orally in female rats measured as milliequivalents of K+x 100 / cage at 81 mg/kg; assay type: functional, Urine; conditions: route oral
Rattus norvegicus [41] = test: Compound was evaluated for diuretic activity administered orally in female rats measured as milliequivalents of K+x 100 / cage at 9 mg/kg; assay type: functional, Urine; conditions: route oral
Rattus norvegicus [42] = test: Compound was evaluated for diuretic activity administered orally in female rats measured as milliequivalents of Na+x 100 / cage at 27 mg/kg; assay type: functional, Urine; conditions: route oral
Rattus norvegicus [43] = test: Compound was evaluated for diuretic activity administered orally in female rats measured as milliequivalents of Na+x 100 / cage at 3 mg/kg; assay type: functional, Urine; conditions: route oral
[44] = volume of urine at 3 mg/kg; assay type: ADME, organism-based; parameters: dose 3 mg/kg; conditions: in vivo
[45] = volume of urine at 81 mg/kg; assay type: ADME, organism-based; parameters: dose 81 mg/kg; conditions: in vivo
[46] = volume of urine at 9 mg/kg; assay type: ADME, organism-based; parameters: dose 9 mg/kg; conditions: in vivo
Pan troglodytes [47] = test: Compound was evaluated for diuretic activity in chimpanzee measured as clearance of […] and urate after intra venous administration of.1 5 mg/kg.; assay type: functional, Urine
Pan troglodytes [48] = test: Compound was evaluated for diuretic activity in chimpanzee measured as increase in the number of microequivalents of Na+ /min at 1 0.5 mg/kg; assay type: functional, Urine
Pan troglodytes [49] = test: Compound was evaluated for diuretic activity in chimpanzee measured as increase in the number of microequivalents of Cl- electrolyte/min at 1.5 mg/kg; assay type: functional, Urine
Canis familiaris [50] = test: Compound was evaluated for diuretic activity, in female mongrel dogs by measuring amount of K+ in urine after iv administration of 5 mg/kg (control/compound treatment results) Control = 13; assay type: functional, Canis lupus familiaris
Canis familiaris [51] = test: Compound was evaluated for diuretic activity, in female mongrel dogs by measuring amount of Cl- in urine after iv administration of 5 mg/kg (control/compound treatment results) Control = 5; assay type: functional, Canis lupus familiaris
Pan troglodytes [52] = test: Compound was evaluated for diuretic activity in chimpanzee measured as increase in the number of microequivalents of K+ /min at 1.5 mg/kg; assay type: functional, Urine
Canis familiaris [53] = test: Compound was evaluated for diuretic activity, in female mongrel dogs by measuring amount of Na+ in urine after iv administration of 5 mg/kg (control/compound treatment results) Control = 59; assay type: functional, Canis lupus familiaris
Canis familiaris [54] = organism: Canis familiaris; test: as §1; assay type: functional, Canis lupus familiaris
[55] = volume of urine at 27 mg/kg; assay type: ADME, organism-based; parameters: dose 27 mg/kg; conditions: in vivo

Structure (SMILES) | Increase in volume (Pan troglodytes [3]) | Delta C urate / delta C insulin (Pan troglodytes [5]) | Increase (Pan troglodytes [7]) | Increase (Pan troglodytes [9]) | Increase (Pan troglodytes [13]) | Urine volume (Canis familiaris [20]) | Increase in volume (Pan troglodytes [21]) | Activity (Canis familiaris [29]) | Activity (Canis familiaris [30]) | Activity (Canis familiaris [31]) | Activity (Rattus norvegicus [32]) | Activity (Rattus norvegicus [33]) | Activity (Rattus norvegicus [34]) | Activity (Rattus norvegicus [35]) | Activity (Rattus norvegicus [36]) | Activity (Rattus norvegicus [37]) | Activity (Rattus norvegicus [38]) | Activity (Rattus norvegicus [39]) | Activity (Rattus norvegicus [40]) | Activity (Rattus norvegicus [41]) | further results
CCC1(CC)C(=O)c2cc(OCC(=O)O)c(C)c(C)c2C1=O | 0.6 mL/min | 0.045 | 103 | 120 | 32 |  |  |  |  |  |  |  |  |  |  |  |  |  |  |  | Urine volume (Canis familiaris [1]): 2 mL/min; Increase in volume (Pan troglodytes [2]): 2.2 mL/min; Delta C urate / delta C insulin (Pan troglodytes [4]): 0.258; Increase (Pan troglodytes [6]): 243; Increase (Pan troglodytes [8]): 288; Increase (Pan troglodytes [10]): 46; Activity (Canis familiaris [11]): 21 u equiv min-1; Activity (Canis familiaris [12]): 42 u equiv min-1; Activity (Canis familiaris [14]): 106 u equiv min-1
Cc1c(OCC(=O)O)cc2c(c1Cl)C(=O)C1(CCCC1)C2=O [(ACYLARYLOXY)ACETIC ACID] | -0.5 mL/min | 0.053 | 170 | 211 | 39 | 5 mL/min | 1.1 mL/min | 3 | 1 | 2 | 47 | 26 | 30 | 10 | 61 | 15 | 32 | 23 | 29 | 30 | Urine volume [15]: 33 mL; Urine volume [16]: 29 mL; Urine volume [17]: 29 mL; Urine volume [18]: 29 mL; Urine volume (Canis familiaris [19]): 253 mL; Delta C urate / delta C insulin (Pan troglodytes [22]): 0.088; Increase (Pan troglodytes [23]): 59; Increase (Pan troglodytes [24]): 117; Increase (Pan troglodytes [25]): 37; Activity (Canis familiaris [26]): 245 u equiv min-1; Activity (Canis familiaris [27]): 23 u equiv min-1; Activity (Canis familiaris [28]): 305 u equiv min-1; Activity (Rattus norvegicus [42]): 35; Activity (Rattus norvegicus [43]): 14
NS(=O)(=O)c1cc2c(cc1Cl)NCNS2(=O)=O [HYDROCHLOROTHIAZIDE] | 1 mL/min | -0.015 | 144 | 198 | 93 | 3 mL/min | 1.8 mL/min | 7 | 18 | 50 | 154 | 133 | 191 | 146 | 163 | 143 | 61 | 50 | 61 | 33 | Urine volume [44]: 37 mL; Urine volume [45]: 33 mL; Urine volume [46]: 30 mL; Delta C urate / delta C insulin (Pan troglodytes [47]): 0.01; Increase (Pan troglodytes [48]): 275; Increase (Pan troglodytes [49]): 187; Activity (Canis familiaris [50]): 27 u equiv min-1; Activity (Canis familiaris [51]): 11 u equiv min-1; Increase (Pan troglodytes [52]): 25; Activity (Canis familiaris [53]): 193 u equiv min-1; Volume of urine (Canis familiaris [54]): 25; Activity (Rattus norvegicus [42]): 168; Activity (Rattus norvegicus [43]): 127; Urine volume [55]: 32 mL
